Measurements reported in article PMC10466336, “Chemical Probe for Imaging of Polo-like Kinase 4 and Centrioles” (JACS Au, 2023).

Assays:
[1] = molecular target: T1, 6xHis-tagged Plk4 kinase domain (KD) (Homo sapiens, UniProt O00444); experiment: Estimation of fluorescence increase (fluorogenicity) with Plk4 kinase domain versus BSA; details: mean of F(+Plk4KD)/F(+BSA) and standard deviation, N = 3; probe 3 µM, 1 h 37 °C
T1 construct: Plasmids encoding fragments of Plk4 kinase domain (2-275) with 6xHis-tag were cloned in pET system vectors; made in house; host or cells: E. coli BL21 gold (DE3)
T1 sequence (O00444 2-275): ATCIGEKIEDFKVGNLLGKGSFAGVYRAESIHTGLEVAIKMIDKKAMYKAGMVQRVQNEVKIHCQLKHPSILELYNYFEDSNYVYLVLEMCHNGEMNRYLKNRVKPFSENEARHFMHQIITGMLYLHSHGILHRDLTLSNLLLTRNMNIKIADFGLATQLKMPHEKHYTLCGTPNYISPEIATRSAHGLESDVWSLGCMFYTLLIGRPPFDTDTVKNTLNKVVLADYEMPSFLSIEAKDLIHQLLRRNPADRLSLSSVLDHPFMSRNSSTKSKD
Text: (§1) Moreover, we substituted the basic acetyl-piperazine nitrogen in compounds (1 and 2a) with an acetyl-piperidine, to avoid probe protonation and accumulation in endolysosomal compartments (Figure S1A, B).[23] This yielded a second generation of centrinone-based probes (compounds 2b–d). These probes were characterized first in vitro by measuring their fluorogenicity in the presence of the 6xHis-tagged Plk4 kinase domain (KD) (Table 1). […] Next, we measured the binding affinities of the probes to the Plk4 kinase domain via a competition binding assay based on fluorescence polarization. […]
1.3.5 Estimation of fluorescence increase
The probes were analysed as described in Lukinavičius et al. 2014 1. Briefly, SiR650 or SiR595- […]
purified Plk4 kinase domain (10 µM in 20 mM Tris, 200 mM NaCl at pH 7.5) or to a bovine serum albumin (BSA) (Sigma) solution (0.2 mg/mL in 20 mM Tris, 200 mM NaCl at pH 7.5). Final concentration of the probe was 3 µM. The samples were incubated for 1 h at 37 °C, and fluorescence was measured in a 96-well plate (Greiner Bio-One) on a plate reader (TECAN Spark® 20M).
Fluorescence emission was recorded from 570 nm to 750 nm for SiR595 probes, and 630 nm to 750 nm for SiR650 while exciting at 550 nm ± 10 nm for SiR595 probes and at 610 ± 10 nm for SiR650 probes.
A fluorescence excitation scan was recorded by measuring the emission at 660 ± 10 nm for SiR595 and 720 ± 10 nm for SiR650 probes, while exciting from 500 nm to 640 nm for SiR595 probes and from […]

Plk4 kinase domain = molecular target: T2, Plk4 kinase domain (Homo sapiens, UniProt O00444); experiment: Competition binding assay based on fluorescence polarization (tracer Alexa488-PEG-N-centrinone); details: Alexa488-PEG-N-centrinone 1 nM, Plk4-KD 5 nM
T2 construct: Plasmids encoding fragments of Plk4 kinase domain (2-275) with 6xHis-tag were cloned in pET system vectors; made in house; host or cells: E. coli BL21 gold (DE3)
T2 sequence (O00444 2-275): T1 sequence (O00444 2-275)
Text: as §1, with “This yielded a second generation of centrinone-based probes (compounds 2b–d).” left out
1.3.6 Fluorescence Polarization assay & competition assay […]
plate (Greiner Bio-One). Upon mixture of protein and ligand, the plate was incubated for 30 min at room temperature followed by fluorescence polarization measurements by a plate reader (TECAN Spark® 20M) using 485 nm as excitation wavelength (bandwidth 20 nm) and 535 nm as emission wavelength (bandwidth 25 nm). The obtained fluorescence polarization values from each well were plotted against the concentration of the protein. The apparent Kd values were obtained by fitting the curve to the […]
FP = FP + FPmax ― FPmin (C + C + K ― (C + C + K )2 ― 4C C ) […]
protein should be around the Kd of the tracer to ensure that enough free protein that can bind the […]
competitor, and enough signal change coming from binding and unbinding of the tracer. The solution of the tracer and protein was titrated with increasing amounts of competitors, in our case SiR650- and […]
The mixture was then incubated for an hour at room temperature and the FP was then measured on a plate reader using the same conditions as mentioned before. From the obtained FP values, we have calculated the amount of free protein in the solution for each concentration of competitor using the equation of the single-site binding isotherm:
Pfree = Kd_tracer FP ― FP
Where Pfree is concentration of free protein, Kd tracer represents the previously determined binding affinity

[2] = tested on: HeLa cells expressing Centrin1-GFP; experiment: Centriole phenotypic scoring (number of Centrin1-GFP foci); assay type: cell-based, human; details: 24 h incubation, scoring of Centrin1-GFP foci
Text: Having established that SiR595-centrinone (2d) can successfully label overexpressed Plk4, we wanted to investigate whether it also marks endogenous Plk4. […] In contrast, partial Plk4 inhibition leads to increased levels of centriolar Plk4 due to partial interference with protein degradation mediated by autophosphorylation, overall resulting in centriole overamplification.[8] Therefore, both under-duplication and overamplification of centrioles can be used as a proxy for SiR595-centrinone binding to endogenous Plk4. […] We conclude that the failure of SiR595-centrinone (2d) to detect endogenous Plk4 is due to the low binding affinity of the probe in combination with low protein levels. […] In the second step, the Plk4-bound molecule is specifically reacted with an appropriate fluorogenic tetrazine dye.[27]−[33] This strategy was applied previously successfully to label various protein targets in live and fixed cells,[30],[32],[34]−[38] and we reasoned that a smaller and potentially more permeable Cen-TCO (3) derivative would likewise enable more efficient labeling of endogenous Plk4.
We conjugated trans-cyclooctene to the previously obtained compound (4) to obtain Cen-TCO (3) using the synthetic route outlined in Scheme S2. The resulting Cen-TCO (3) reacted with an appropriate tetrazine, such as SiR650-TetH (4a) (Figure S4A). The reaction was followed by LC-MS, and the data confirmed quantitative conversion of Cen-TCO (3) to the appropriate cycloaddition product Cen-Click-SiR650 (Figure S4A, D). […] To assess the phenotype caused by Cen-TCO (3), we incubated HeLa cells expressing Centrin1-GFP with different concentrations of Cen-TCO (3) for 24 h, followed by scoring of Centrin1-GFP foci numbers (Figure S5B). […] Despite the high unspecific background signal, a clear focus could be detected at centrioles (Figure 4B). […] The fwhm of the circular signal in this case was 368 ± 26 (N = 6) (Figure S7B), which corresponds to the size measured with overexpressed GFP-Plk4(K41M) (see Figure 3D), and approximately that of the torus region surrounding the centriole.[40] […]

[3] = molecular target: T3, endogenous Plk4 in HeLa cells expressing Centrin1-GFP (Homo sapiens, UniProt O00444); experiment: Live- and fixed-cell confocal/STED imaging of endogenous Plk4; assay type: cell-based; details: added to live cells in culture, 1 µM (Figure S1)
T3 construct: live cell imaging of endogenous Plk4; endogenous in cells; host or cells: HeLa cells stably expressing Centrin1-GFP
T3 sequence (O00444 1-970): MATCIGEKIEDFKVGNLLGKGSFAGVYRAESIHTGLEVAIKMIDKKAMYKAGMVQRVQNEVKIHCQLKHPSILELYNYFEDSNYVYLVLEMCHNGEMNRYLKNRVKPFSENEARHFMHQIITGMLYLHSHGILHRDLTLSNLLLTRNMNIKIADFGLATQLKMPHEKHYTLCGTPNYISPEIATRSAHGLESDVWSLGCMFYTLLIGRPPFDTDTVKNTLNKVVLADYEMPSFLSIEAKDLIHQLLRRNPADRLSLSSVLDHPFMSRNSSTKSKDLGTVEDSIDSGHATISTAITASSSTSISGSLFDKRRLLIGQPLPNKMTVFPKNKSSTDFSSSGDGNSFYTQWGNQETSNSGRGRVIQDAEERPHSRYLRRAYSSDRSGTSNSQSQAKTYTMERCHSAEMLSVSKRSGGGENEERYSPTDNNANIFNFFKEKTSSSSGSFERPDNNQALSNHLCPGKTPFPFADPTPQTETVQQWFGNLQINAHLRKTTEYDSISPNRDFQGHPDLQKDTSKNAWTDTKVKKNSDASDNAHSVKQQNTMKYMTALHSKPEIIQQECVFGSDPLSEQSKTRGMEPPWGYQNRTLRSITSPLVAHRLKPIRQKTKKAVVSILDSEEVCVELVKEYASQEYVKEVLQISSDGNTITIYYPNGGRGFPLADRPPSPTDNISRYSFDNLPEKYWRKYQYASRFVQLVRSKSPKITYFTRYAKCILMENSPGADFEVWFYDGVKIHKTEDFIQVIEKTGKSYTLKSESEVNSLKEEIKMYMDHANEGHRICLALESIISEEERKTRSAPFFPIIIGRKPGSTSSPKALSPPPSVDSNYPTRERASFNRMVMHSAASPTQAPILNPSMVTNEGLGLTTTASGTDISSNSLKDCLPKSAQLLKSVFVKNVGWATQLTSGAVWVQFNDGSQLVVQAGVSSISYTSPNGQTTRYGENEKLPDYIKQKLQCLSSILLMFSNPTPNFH

Row | SMILES | FPIk4/FBSA [1] | Kd (Plk4 kinase domain) [nM] | concentration causing the centriole under-duplication phenotype [2] [nM] | unspecific labeling in live human cells [3]
1 | COc1c(Nc2cc(C)[nH]n2)nc(Sc2ccc(S(=O)(=O)Cc3cccc([N+](=O)[O-])c3F)cc2F)nc1N1CCC(CC(=O)NCCOCCNC(=O)c2ccc(C(=O)O)c(C3=C4C=CC(=N)C=C4[Si](C)(C)c4cc(N)ccc43)c2)CC1 [2b] | 23 ± 1 | 14 ± 4 | – | –
2 | COc1c(Nc2cc(C)[nH]n2)nc(Sc2ccc(S(=O)(=O)Cc3cccc([N+](=O)[O-])c3F)cc2F)nc1N1CCOCC1 [centrinone, reference compound] | – | – | ≥ 250 | –
3 | COc1c(Nc2cc(C)[nH]n2)nc(Sc2ccc(S(=O)(=O)Cc3cccc([N+](=O)[O-])c3F)cc2F)nc1N1CCN(CC(=O)NCCOCCNC(=O)c2ccc(C(=O)[O-])c(C3=C4C=CC(=[N+](C)C)C=C4[Si](C)(C)c4cc(N(C)C)ccc43)c2)CC1 [compound 1] | 4 ± 1 | 48 ± 6 | – | high unspecific labeling
4 | COc1c(Nc2cc(C)[nH]n2)nc(Sc2ccc(S(=O)(=O)Cc3cccc([N+](=O)[O-])c3F)cc2F)nc1N1CCC(CC(=O)NCCCCNC(=O)c2ccc(C(=O)O)c(C3=C4C=CC(=N)C=C4[Si](C)(C)c4cc(N)ccc43)c2)CC1 [2c] | 14 ± 2 | 23 ± 6 | – | –
5 | COc1c(Nc2cc(C)[nH]n2)nc(Sc2ccc(S(=O)(=O)Cc3cccc([N+](=O)[O-])c3F)cc2F)nc1N1CCN(CC(=O)NCCOCCNC(=O)c2ccc(C(=O)O)c(C3=C4C=CC(=N)C=C4[Si](C)(C)c4cc(N)ccc43)c2)CC1 [2a] | 10 ± 1 | 26 ± 3 | – | high unspecific labeling
